Source: article PMC2852430 (Biochemistry, 2010)

What was measured:
[1] = tested on: bovine brain tubulin (BbTb); test: Association kinetics of ligand binding to BbTb by fluorescence; details: 25°C, […] μM allocolchicine; for kf, apparent second order rate constant of the fast phase of biphasic binding to BbTb: 1 μM BbTb, 20 μM colchicinoid
[2] = tested on: bovine brain tubulin (BbTb); test: Inhibition of paclitaxel-induced tubulin assembly; assay type: biochemical; details: read-out: IC50, inhibition of Taxol-induced assembly of BbTb; 2 μM tubulin
[3] = tested on: bovine brain tubulin (BbTb); test: Equilibrium fluorescence titration of allocolchicine with BbTb; assay type: binding; details: 25°C
[4] = biological target: chicken erythrocyte tubulin (CeTb), ~95% βVI (Gallus gallus, UniProt P09207); test: biochemical; assay type: biochemical
[5] = tested on: cells containing human β1; details: cited from earlier work

Sequence of chicken erythrocyte tubulin (CeTb), ~95% βVI (P09207 whole entry): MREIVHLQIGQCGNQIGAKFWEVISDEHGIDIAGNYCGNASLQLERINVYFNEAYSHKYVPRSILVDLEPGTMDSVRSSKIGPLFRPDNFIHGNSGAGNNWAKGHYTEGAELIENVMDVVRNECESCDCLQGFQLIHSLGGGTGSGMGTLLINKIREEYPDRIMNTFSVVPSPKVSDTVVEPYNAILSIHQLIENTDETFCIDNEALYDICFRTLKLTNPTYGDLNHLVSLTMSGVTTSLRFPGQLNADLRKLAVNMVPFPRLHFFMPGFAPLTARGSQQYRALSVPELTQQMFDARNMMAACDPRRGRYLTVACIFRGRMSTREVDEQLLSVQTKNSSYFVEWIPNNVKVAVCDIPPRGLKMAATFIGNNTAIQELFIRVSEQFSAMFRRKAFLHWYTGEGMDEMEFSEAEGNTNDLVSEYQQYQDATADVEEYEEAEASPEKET
Sequence of chicken erythrocyte tubulin (CeTb), ~95% βVI (P02552 whole entry partner): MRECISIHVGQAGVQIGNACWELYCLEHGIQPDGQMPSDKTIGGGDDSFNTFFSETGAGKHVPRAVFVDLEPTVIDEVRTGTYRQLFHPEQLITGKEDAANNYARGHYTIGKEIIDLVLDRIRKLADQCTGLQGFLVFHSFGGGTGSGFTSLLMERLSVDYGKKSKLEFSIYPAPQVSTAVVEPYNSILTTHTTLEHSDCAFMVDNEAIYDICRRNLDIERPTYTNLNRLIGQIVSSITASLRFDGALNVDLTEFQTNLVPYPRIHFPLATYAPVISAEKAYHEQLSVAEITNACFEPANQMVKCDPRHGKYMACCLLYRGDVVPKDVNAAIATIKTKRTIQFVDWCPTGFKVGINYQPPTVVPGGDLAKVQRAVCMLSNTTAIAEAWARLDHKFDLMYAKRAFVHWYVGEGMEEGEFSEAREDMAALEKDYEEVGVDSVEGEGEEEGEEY

COc1cc2c(c(OC)c1OC)-c1ccc(Cl)c(=O)cc1C(NC(C)=O)CC2 (stereo not drawn) [Chlorocolchicine, 10-demethoxy-10-chlorocolchicine]
kf, apparent second order rate constant of the fast phase of biphasic binding to BbTb [1]: 367 ± 7 M⁻¹ s⁻¹

COC(=O)c1ccc2c(c1)[C@@H](NC(C)=O)CCc1cc(OC)c(OC)c(OC)c1-2 [Allocolchicine, allocolchicine]
IC50 [2]: 500 nM
kf, apparent second order rate constant of the fast phase of biphasic binding to BbTb [1]: 343 ± 7 M⁻¹ s⁻¹
Time for binding to BbTb to attain a plateau ([1]; 1 μM tubulin): ≤ 600 s
Ligand concentration at which fluorescence enhancement plateaus, BbTb ([3]; 1 μM BbTb): about 20 μM
Association constant (Ka) for BbTb ([3]; 1 μM tubulin, 10% DMSO, single site isotherm): 500000 M⁻¹

COc1cc([C@@H]2c3cc4c(cc3[C@H](O)[C@H]3COC(=O)[C@H]23)OCO4)cc(OC)c1OC [Podophyllotoxin, podophyllotoxin]
IC50 [4]: 25 ± 1 µM
IC50 for CeTb assembly relative to IC50 for BbTb ([4]; 5 μM tubulin, same experimental conditions): about 15 fold

COc1cc2c(cc1O)CC[C@@H]1[C@@H]2CC[C@]2(C)[C@@H](O)CC[C@@H]12 [2-methoxyestradiol]
Sensitivity of cells containing human β1 to ligand [5]: insensitive
